In paper PMC4377985, “Cytotoxic and Antibacterial Angucycline- and Prodigiosin- Analogues from the Deep-Sea Derived Streptomyces sp. SCSIO 11594” (Marine Drugs, 2015):
Converted amounts (≈) assume the structure as drawn. Where two headings read alike, the source gives them in different places.

What was measured:
[1] = test system: Escherichia coli ATCC 25922; assay: antibacterial activity, dilution susceptibility test; format: cell-based; conditions: ATCC25922
Experimental: (§1) The antibacterial activities of compounds 1–5 were evaluated using MRSE shhs-E1, methicillin-resistant Staphylococcus aureus (MRSA) shhs-A1, Staphylococcus aureus ATCC 29213, Enterococcus faecalis ATCC29212, Escherichia coli ATCC 25922, Micrococcus luteus, and multidrug resistant Pseudomonas aeruginosa.
(§2) The antibacterial activities of compounds 1–5 were assessed using seven strains of pathogenic bacteria including MRSE shhs-E1, MRSA shhs-A1, Staphylococcus aureus ATCC 29213, Enterococcus faecalis ATCC29212, Escherichia coli ATCC 25922, Micrococcus luteus, and multidrug resistant Pseudomonas aeruginosa. Dilution antimicrobial susceptibility tests for aerobic bacteria were carried out as previously reported.

[2] = test system: multidrug resistant Pseudomonas aeruginosa; assay: as above; format: cell-based
Experimental: as §1, §2

[3] = test system: Staphylococcus aureus ATCC 29213; assay: as above; format: cell-based; conditions: ATCC29213
Experimental: as §1, §2

[4] = test system: Micrococcus luteus; assay: as above; format: cell-based
Experimental: as §1, §2

[5] = test system: Enterococcus faecalis ATCC29212; assay: as above; format: cell-based
Experimental: as §1, §2

[6] = test system: human hepatocarcinoma cancer cell line HepG2; assay: in vitro cytotoxicity, MTT; format: cell-based
Experimental: (§3) The anticancer activity of the related natural products has been described in a number of literatures, and the structure activity relationships of related synthetic natural products have been reported.
(§4) IC50 values were calculated using GraphPad Prism 5 software. All data were obtained in triplicate and are presented as means ± SD.

[7] = test system: human nasopharyngeal carcinoma cell line CNE2; assay: in vitro cytotoxicity, MTT; format: cell-based
Experimental: as §3, §4

[8] = test system: human lung cancer cell line A549; assay: in vitro cytotoxicity, MTT; format: cell-based
Experimental: as §3, §4

[9] = test system: human breast adenocarcinoma cell line MCF-7; assay: in vitro cytotoxicity, MTT; format: cell-based
Experimental: as §3, §4

[10] = in vitro cytotoxicity, MTT; format: cell-based; conditions: human, normal hepatic cell line HL7702, MTT, n = 3, mean ± SD
Experimental: as §3, §4

[11] = test system: MRSA shhs-A1; assay: antibacterial activity, dilution susceptibility test; format: cell-based, methicillin-resistant Staphylococcus aureus; conditions: Staphylococcus aureus
Experimental: as §1, §2

[12] = test system: MRSE shhs-E1; assay: as above; format: cell-based, methicillin-resistant Staphylococcus epidermidis; conditions: Staphylococcus epidermidis
Experimental: as §1, §2

[13] = test system: four human cancer cell lines A549, CNE2, HepG2, MCF-7; assay: in vitro cytotoxicity, MTT, panel of four cancer cell lines; format: cell-based; conditions: for estimated therapeutic ratio (TR): comparison of tumor cell-derived IC50 values with HL7702 IC50; for fold more cytotoxic/potent than the positive control cisplatin: relative to cisplatin, cancer cell lines
Experimental: Compounds 1–5 were tested for potential in vitro cytotoxicity against human lung cancer cell line A549, human nasopharyngeal carcinoma cell line CNE2, human breast adenocarcinoma cell line MCF-7, human hepatocarcinoma cancer cell line HepG2, and the normal hepatic cell line HL7702. […] The anticancer activity of the related natural products has been described in a number of literatures, and the structure activity relationships of related synthetic natural products have been reported.
Compounds 1–5 were evaluated for cytotoxic activity using four human cancer cell lines, A549, CNE2, HepG2, MCF-7, one normal hepatic cell line HL7702 and previously reported MTT methodologies. IC50 values were calculated using GraphPad Prism 5 software. All data were obtained in triplicate and are presented as means ± SD. Cisplatin was used as a positive control.

[14] = HepG2, MTT, n = 3, mean ± SD, read-out: in vitro cytotoxicity IC50, HepG2
[15] = CNE-2, CNE2, MTT, n = 3, mean ± SD, read-out: in vitro cytotoxicity IC50, CNE2
[16] = A549, MTT, n = 3, mean ± SD, read-out: in vitro cytotoxicity IC50, A549
[17] = MCF7, MCF-7, MTT, n = 3, mean ± SD, read-out: in vitro cytotoxicity IC50, MCF-7

| SMILES | MIC [1] [µg/mL] | MIC [2] [µg/mL] | MIC [3] [µg/mL] | MIC [4] [µg/mL] | MIC [5] [µg/mL] | IC50 [6, 14] [µM] | IC50 [7, 15] [µM] | IC50 [8, 16] [µM] | IC50 [9, 17] [µM] | IC50 ([10]; HL7702 normal hepatic cells) [µM] | MIC [11] [µg/mL] | MIC ([12]; MRSE) [µg/mL] | estimated therapeutic ratio (TR) [13] | fold more cytotoxic/potent than the positive control cisplatin [13] | further results |
| --- | --- | --- | --- | --- | --- | --- | --- | --- | --- | --- | --- | --- | --- | --- | --- |
| CCCCCCCCCCCC1=N/C(=C\c2[nH]c(-c3ccc[nH]3)cc2OC)C=C1 [Compound 4, undecylprodigiosin] | > 64 | > 64 | > 64 | > 64 | > 64 | 4.67 ± 0.09 | 0.28 ± 0.02 | 0.85 ± 0.01 | 1.11 ± 0.07 | 12.47 ± 0.09 | > 64 | > 64 | 3–45 | 1–10 fold |  |
| Cc1cc(O)c2c3c(ccc2c1)C(=O)c1c(ccc(C2CC4OC5CC(=O)C(C)OC5OC4C(C)O2)c1O)C3=O (stereo not shown) [Compound 2, marangucycline B] |  |  |  |  |  | 0.43 ± 0.05 | 0.56 ± 0.02 | 0.45 ± 0.03 | 0.24 ± 0.003 | 3.67 ± 0.07 |  |  | 7–15 | 10–20 fold | IC50 ([13]; Homo sapiens, four cancer cell lines, read-out: IC50 values against cancer cell lines (range over the panel)): 240 to 560 nM |
| Cc1cc(O)c2c3c(ccc2c1)C(=O)c1c(ccc([C@H]2C[C@@H](O)[C@H](O)[C@@H](C)O2)c1O)C3=O [Compound 3, dehydroxyaquayamycin] |  |  |  |  |  | 18.81 ± 0.12 | 22.27 ± 0.07 | 16.4 ± 0.19 | 23.65 ± 0.09 | 49.34 ± 0.17 |  |  | 2–3 |  | MIC ([12]; MRSE shhs-E1, read-out: MIC): 16 µg/mL (≈ 36.8 µM) |
| CCC1CCCCCCCCC2=N/C(=C\c3[nH]c(-c4ccc[nH]4)cc3OC)C1=C2 (stereo not shown) [Compound 5, metacycloprodigiosin] | > 64 | > 64 | > 64 | > 64 | > 64 |  |  |  |  |  | > 64 | > 64 |  |  | IC50 ([6]; HepG2, read-out: in vitro cytotoxicity IC50, HepG2): > 50 µM; IC50 ([7]; CNE-2, read-out: in vitro cytotoxicity IC50, CNE2): > 50 µM; IC50 ([8]; A549, read-out: in vitro cytotoxicity IC50, A549): > 50 µM; IC50 ([9]; MCF7, read-out: in vitro cytotoxicity IC50, MCF-7): > 50 µM; IC50 [10]: > 50 µM |
| Cc1cc(O)c2c3c(ccc2c1)C(=O)c1c(ccc([C@H]2C[C@@H](O)[C@H](O[C@H]4CC[C@@H](O)[C@H](C)O4)[C@@H](C)O2)c1O)C3=O [Compound 1, marangucycline A] |  |  |  |  |  | > 50 | > 50 | > 50 | > 50 | > 50 |  |  |  |  |  |
